Here are results for 30 molecules from patent US10689383B2, “Optionally fused heterocyclyl-substituted derivatives of pyrimidine useful for the treatment of inflammatory, metabolic, oncologic and autoimmune diseases” (NUEVOLUTION A/S, priority 2014, dated 2020).

Some results are limits rather than exact numbers.

This experiment has as its target T1, human RORγt (Ligand Binding Domain) (Homo sapiens, UniProt P51449).
T1 construct: purchased Crelux (Planegg, Germany) batch no PC5032-1
T1 sequence (P51449 269-508 limits assumed): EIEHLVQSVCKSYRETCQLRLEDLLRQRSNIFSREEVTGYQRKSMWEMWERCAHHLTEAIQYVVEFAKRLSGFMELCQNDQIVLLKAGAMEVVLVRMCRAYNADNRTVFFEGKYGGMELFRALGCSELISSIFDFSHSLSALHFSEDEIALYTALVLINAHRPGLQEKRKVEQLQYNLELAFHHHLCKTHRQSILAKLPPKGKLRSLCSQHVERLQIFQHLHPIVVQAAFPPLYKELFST
The experiment in a line: Fluorescence Polarization (FP) Assay. The settings on record: Fluorescence Polarization (FP) Assay; values given as upper bounds of activity ranges; read-out: FP activity range. On the procedure:
The activity of the compounds was evaluated using a Fluorescence Polarization (FP) Assay and, in most cases, a Th17 Assay and/or RORγ Reporter assay (also referred to as Gal4 assay). The FP assay is an in vitro assay monitoring binding within the ligand binding pocket. The RORγ and the Th17 assays are both cell-based assays monitoring functional activity of the compound assayed.
The total volume was 25 μl, in a black Perkin Elmer OptiPlate. As negative control, 1 μl DMSO was used. […] The probe is a fluorescently labeled (TAMRA) RORγt ligand identified by Nuevolution with a total molecular weight of 910 g/mole as shown in Graph A in FIG. 1.
For orientation: Fluorescence polarisation rises when a labelled molecule tumbles more slowly, as on binding a larger partner.
As for `OCC1CCN(c2ccc(CNc3ncnc(N4CCCC4c4ccc(C(F)(F)F)cc4)c3F)cn2)CC1` (stereo not drawn) [Example 58, [1-[5-[[[5-fluoro-6-[2-[4-(trifluoromethyl)phenyl]pyrrolidin-1-yl]pyrimidin-4-yl]amino]methyl]-2-pyridyl]-4-piperidyl]methanol], the IC50 was less than 10 µM. With `Fc1c(NCc2ccc(OCC3CCCO3)cc2)ncnc1N1CCCC1c1ccc(C(F)(F)F)cc1` (stereo not drawn) [Example 59, 5-fluoro-N-[[4-(tetrahydrofuran-2-ylmethoxy)phenyl]methyl]-6-[2-[4-(trifluoromethyl)phenyl]pyrrolidin-1-yl]pyrimidin-4-amine], the IC50 was less than 10 µM. To `NC(=O)C1CCCN(c2ccc(CNc3ncnc(N4CCCC4c4ccc(C(F)(F)F)cc4)c3F)cc2)C1` (stereo not drawn) [Example 61, 1-[4-[[[5-fluoro-6-[2-[4-(trifluoromethyl)phenyl]pyrrolidin-1-yl]pyrimidin-4-yl]amino]methyl]phenyl]piperidine-3-carboxamide] belongs less than 10 µM; to `COC(=O)Cc1ccc(CNc2ncnc(N3CCCC3c3ccc(C(F)(F)F)cc3)c2F)cc1` (stereo not drawn) [Example 70, methyl 2-[4-[[[5-fluoro-6-[2-[4-(trifluoromethyl)phenyl]pyrrolidin-1-yl]pyrimidin-4-yl]amino]methyl]phenyl]acetate], less than 2 µM.

For `CC(=O)N1CCOC([C@@H](CC(C)(C)C)Nc2ncnc(N3CCCC3c3ccc(C(F)(F)F)cc3)c2F)C1` (stereo partly drawn) [Example 71, 1-[2-[(1R)-1-[[5-fluoro-6-[2-[4-(trifluoromethyl)phenyl]pyrrolidin-1-yl]pyrimidin-4-yl]amino]-3,3-dimethyl-butyl]morpholin-4-yl]ethanone], the IC50 was less than 10 µM. To `Cn1ccc(CNc2ncnc(N3CCCC3c3ccc(C(F)(F)F)cc3)c2F)c1` (stereo not drawn) [Example 105, 5-fluoro-N-[(1-methylpyrrol-3-yl)methyl]-6-[2-[4-(trifluoromethyl)phenyl]pyrrolidin-1-yl]pyrimidin-4-amine] belongs less than 10 µM; to `O=C1CCC(CNc2ncnc(N3CCCC3c3ccc(C(F)(F)F)cc3)c2F)N1` (stereo not drawn) [Example 108, 5-[[[5-fluoro-6-[2-[4-(trifluoromethyl)phenyl]pyrrolidin-1-yl]pyrimidin-4-yl]amino]methyl]pyrrolidin-2-one], less than 10 µM.

As for `O=C(O)c1ccc(CCNc2ncnc(N3CCCC3c3ccc(C(F)(F)F)cc3)c2F)cc1` (stereo not drawn) [Example 120, 4-[2-[[5-fluoro-6-[2-[4-(trifluoromethyl)phenyl]pyrrolidin-1-yl]pyrimidin-4-yl]amino]ethyl]benzoic acid], the IC50 was less than 10 µM.

As to `O=C1Cc2cc(CNc3ncnc(N4CCCC4c4ccc(C(F)(F)F)cc4)c3F)ccc2N1` (stereo not drawn) [Example 122, 5-[[[5-fluoro-6-[2-[4-(trifluoromethyl)phenyl]pyrrolidin-1-yl]pyrimidin-4-yl]amino]methyl]indolin-2-one], the IC50 was less than 10 µM. To `O=C1CC(CNc2ncnc(N3CCCC3c3ccc(C(F)(F)F)cc3)c2F)CN1C1CCCC1` (stereo not drawn) [Example 130, 1-cyclopentyl-4-[[[5-fluoro-6-[2-[4-(trifluoromethyl)phenyl]pyrrolidin-1-yl]pyrimidin-4-yl]amino]methyl]pyrrolidin-2-one] belongs less than 10 µM. Then `Cc1cccc(CNc2ncnc(N3CCCC3c3ccc(C(F)(F)F)cc3)c2F)n1` (stereo not drawn) [Example 132, 5-fluoro-N-[(6-methyl-2-pyridyl)methyl]-6-[2-[4-(trifluoromethyl)phenyl]pyrrolidin-1-yl]pyrimidin-4-amine], with less than 10 µM; and `O=C1CC2(CCCN(c3ncnc(N4CCCC4c4ccc(C(F)(F)F)cc4)c3F)C2)CN1` (stereo not drawn) [Example 134, 9-[5-fluoro-6-[2-[4-(trifluoromethyl)phenyl]pyrrolidin-1-yl]pyrimidin-4-yl]-3,9-diazaspiro[4.5]decan-2-one], with less than 10 µM; and `CN1CC(CN(C)c2ncnc(N3CCCC3c3ccc(C(F)(F)F)cc3)c2F)CC1=O` (stereo not drawn) [Example 135, 4-[[[5-fluoro-6-[2-[4-(trifluoromethyl)phenyl]pyrrolidin-1-yl]pyrimidin-4-yl]-methyl-amino]methyl]-1-methyl-pyrrolidin-2-one], with less than 10 µM. Regarding `CCc1ccc(CN(C)c2ncnc(N3CCCC3c3ccc(C(F)(F)F)cc3)c2F)nc1` (stereo not drawn) [Example 136, N-[(5-ethyl-2-pyridyl)methyl]-5-fluoro-N-methyl-6-[2-[4-(trifluoromethyl)phenyl]pyrrolidin-1-yl]pyrimidin-4-amine], the IC50 was less than 2 µM. Then `O=C1CCCN1c1ccc(CNc2ncnc(N3CCCC3c3ccc(C(F)(F)F)cc3)c2F)cc1` (stereo not drawn) [Example 137, 1-[4-[[[5-fluoro-6-[2-[4-(trifluoromethyl)phenyl]pyrrolidin-1-yl]pyrimidin-4-yl]amino]methyl]phenyl]pyrrolidin-2-one], with less than 10 µM. To `Fc1c(NCc2ccc(-c3nnn[nH]3)cc2)ncnc1N1CCCC1c1ccc(C(F)(F)F)cc1` (stereo not drawn) [Example 138, 5-fluoro-N-[[4-(1H-tetrazol-5-yl)phenyl]methyl]-6-[2-[4-(trifluoromethyl)phenyl]pyrrolidin-1-yl]pyrimidin-4-amine] belongs less than 0.5 µM; to `Fc1c(NCc2ccccc2)ncnc1N1CCCC1c1ccc(C(F)(F)F)cc1` (stereo not drawn) [Example 139, N-benzyl-5-fluoro-6-[2-[4-(trifluoromethyl)phenyl]pyrrolidin-1-yl]pyrimidin-4-amine], less than 2 µM; to `Fc1c(NCc2cccnc2)ncnc1N1CCCC1c1ccc(C(F)(F)F)cc1` (stereo not drawn) [Example 141, 5-fluoro-N-(3-pyridylmethyl)-6-[2-[4-(trifluoromethyl)phenyl]pyrrolidin-1-yl]pyrimidin-4-amine], less than 2 µM.

Take `COc1cc(CNc2ncnc(N3CCCC3c3ccc(C(F)(F)F)cc3)c2F)cc(OC)c1` (stereo not drawn) [Example 142, N-[(3,5-dimethoxyphenyl)methyl]-5-fluoro-6-[2-[4-(trifluoromethyl)phenyl]pyrrolidin-1-yl]pyrimidin-4-amine]: the IC50 is less than 2 µM.

Turning to `O=C1CCCN1c1cccc(CNc2ncnc(N3CCCC3c3ccc(C(F)(F)F)cc3)c2F)c1` (stereo not drawn) [Example 143, 1-[3-[[[5-fluoro-6-[2-[4-(trifluoromethyl)phenyl]pyrrolidin-1-yl]pyrimidin-4-yl]amino]methyl]phenyl]pyrrolidin-2-one], the IC50 is less than 2 µM. Consider `CNC(=O)c1cccc(CNc2ncnc(N3CCCC3c3ccc(C(F)(F)F)cc3)c2F)c1` (stereo not drawn) [Example 144, 3-[[[5-fluoro-6-[2-[4-(trifluoromethyl)phenyl]pyrrolidin-1-yl]pyrimidin-4-yl]amino]methyl]-N-methyl-benzamide], for which the IC50 is less than 10 µM. For the molecule `CN(C)C(=O)c1cccc(CNc2ncnc(N3CCCC3c3ccc(C(F)(F)F)cc3)c2F)c1` (stereo not drawn) [Example 145, 3-[[[5-fluoro-6-[2-[4-(trifluoromethyl)phenyl]pyrrolidin-1-yl]pyrimidin-4-yl]amino]methyl]-N,N-dimethyl-benzamide], the IC50 was less than 10 µM. `Fc1c(NCc2cccc(Cn3cncn3)c2)ncnc1N1CCCC1c1ccc(C(F)(F)F)cc1` (stereo not drawn) [Example 146, 5-fluoro-N-[[3-(1,2,4-triazol-1-ylmethyl)phenyl]methyl]-6-[2-[4-(trifluoromethyl)phenyl]pyrrolidin-1-yl]pyrimidin-4-amine]: the IC50 is less than 2 µM. Then `COCc1cccc(CNc2ncnc(N3CCCC3c3ccc(C(F)(F)F)cc3)c2F)c1` (stereo not drawn) [Example 147, 5-fluoro-N-[[3-(methoxymethyl)phenyl]methyl]-6-[2-[4-(trifluoromethyl)phenyl]pyrrolidin-1-yl]pyrimidin-4-amine], with less than 2 µM; and `Cc1ccc(CNc2ncnc(N3CCCC3c3ccc(C)o3)c2F)cn1` (stereo not drawn) [Example 150, 5-fluoro-6-[2-(5-methyl-2-furyl)pyrrolidin-1-yl]-N-[(6-methyl-3-pyridyl)methyl]pyrimidin-4-amine], with less than 10 µM. In the case of `Fc1c(NCC2CCC2)ncnc1N1CCCC1c1ccc(C(F)(F)F)cc1` (stereo not drawn) [Example 151, N-(cyclobutylmethyl)-5-fluoro-6-[2-[4-(trifluoromethyl)phenyl]pyrrolidin-1-yl]pyrimidin-4-amine], the IC50 was less than 10 µM. `Fc1c(NCC2CCOC2)ncnc1N1CCC[C@@H]1c1ccc(C(F)(F)F)cc1` (stereo partly drawn) [Example 154, 5-fluoro-N-(tetrahydrofuran-3-ylmethyl)-6-[(2R)-2-[4-(trifluoromethyl)phenyl]pyrrolidin-1-yl]pyrimidin-4-amine]: the IC50 is less than 0.5 µM. To `Fc1c(NCC2CCCCO2)ncnc1N1CCC[C@@H]1c1ccc(C(F)(F)F)cc1` (stereo partly drawn) [Example 155, 5-fluoro-N-(tetrahydropyran-2-ylmethyl)-6-[(2R)-2-[4-(trifluoromethyl)phenyl]pyrrolidin-1-yl]pyrimidin-4-amine] belongs less than 10 µM; to `Fc1c(NCC2CCCS2)ncnc1N1CCC[C@@H]1c1ccc(C(F)(F)F)cc1` (stereo partly drawn) [Example 159, 5-fluoro-N-(tetrahydrothiophen-2-ylmethyl)-6-[(2R)-2-[4-(trifluoromethyl)phenyl]pyrrolidin-1-yl]pyrimidin-4-amine], less than 2 µM.

Take `CC1(C)CCC(CNc2ncnc(N3CCC[C@@H]3c3ccc(C(F)(F)F)cc3)c2F)CC1` [Example 166, N-[(4,4-dimethylcyclohexyl)methyl]-5-fluoro-6-[(2R)-2-[4-(trifluoromethyl)phenyl]pyrrolidin-1-yl]pyrimidin-4-amine]: the IC50 was less than 0.5 µM.
